Assay [1] has as its system fibroblasts, monocytes and neutrophils. As to the kind of experiment: Chemotaxis assays expressed as Migration Index (cell type not separated). It counts as cell-based, human. As to conditions: cells migrating in response to peptide divided by cells migrating in response to medium; positive chemotactic control. The source says:
The peptides of the invention induce chemotaxis of fibroblasts and inflammatory cells (neutrophils and monocytes/macro-phages) in in vitro assays. Assays for measuring chemotaxis induced by the peptides can utilize either fibroblasts or monocytes. The following sets forth a representative assay for measuring fibroblast chemotaxis induced by the peptides of the invention:
Peptides 280-293, 296-322, 328-354, 358-382 (SEQ ID NO. 16), 366-387 (SEQ ID NO. 11), 364-378 (SEQ ID NO. 6) and 368-374 (SEQ ID NO. 1) of Table I, whose sequences correspond to the designated regions of TGF-β1 were tested in chemotaxis assays for the ability to induce migration of fibroblasts, monocytes and neutrophils. The peptides were added to the lower compartments of modified Boyden chambers at the indicated concentration.
Because the peptides were tested in different experiments, migration was expressed as "Migration Index" which is obtained by dividing the number of cells migrating in response to medium into the number of cells migrating in response to each peptide. A positive chemotactic control, peptide 340-391 gave migration indices between 7-11.

The subject of assay [2] is infant foreskin fibroblasts. Description: Collagen production by fibroblasts (modified Peterofsky-Diegelman assay). In kind it is cell-based, human. To be noted: [3H]proline incorporation into collagenase-sensitive protein.
For assay [3], the system named is infant foreskin fibroblasts. Description: Fibroblast proliferation, [3H]thymidine incorporation. In kind it is cell-based. To be noted: [3H]thymidine pulse after 72 h, harvest 24 h later; positive control human recombinant TGF-β1 (25 ng/ml). The protocol: The peptides of the invention were also found to induce fibroblast proliferation in vitro. Fibroblast proliferation was measured in low passaged (fewer than 8) fibroblast cultures. Fibroblasts were added at low density (20,000 cells/well) to Falcon 3047 multiwell plates in maintenance medium. After incubation at 37° C. in a humidified atmosphere containing 5% CO2 for 16 h, the medium was removed from each well and replaced with 450 μl serum-free maintenance medium containing 0.1% BSA and 50 μl aliquots of sterilized test sample. Each sample being tested for mitogenic activity was added to triplicate wells. […] After 15 min. of repeated agitation of each multi-well plate, a 250 μl aliquot from each well was transferred to scintillation vials containing Bio-Safe II (Research Products International Corp., Mt. Prospect, Ill.), cooled for 4 h, and counted in a scintillation counter. Fibroblast proliferation was expressed as "Mean CPM±SEM" per well of the replicates. […]
Fibroblast proliferation experiments in response to the 7-mer peptides (peptides 368-374) were carried out as generally described above. […] All cultures were performed in triplicate and results were expressed as the means of triplicate values as counts per minute (CPM) per well. […]

In the case of “340-391: synthetic peptide corresponding to sequence 340-391 of TGF-β1; positive chemotactic control (VLALYNQHNPGASAAPCCVPQALEPLPIVYYVGRKPKVEQLSNMIVRSCKCS; printed: Val Leu Ala Leu Tyr Asn Gln His Asn Pro Gly Ala Ser Ala Ala Pro Cys Cys Val Pro Gln Ala Leu Glu Pro Leu Pro Ile Val Tyr Tyr Val Gly Arg Lys Pro Lys Val Glu Gln Leu Ser Asn Met Ile Val Arg Ser Cys Lys Cys Ser) [Peptide 340-391]”, the “Migration Index” value in assay [1] is on record as 7-11.
For the substance “VYYVGRK [Peptide 368-374, 7-mer corresponding to amino acids 368-374 of TGF-β1]”, the “collagen production by fibroblasts (in words)” value is given as “being the most potent” in assay [2] and “stimulated collagen production to some degree” in assay [2] (listed as VYYVGRKK). For the same substance, in assay [3], the “fibroblast proliferation / growth (in words)” value was “most effective in inducing fibroblast growth, exceeding that obtained with human recombinant TGF-β1”.
